Columns and labels:
[1] = system: corn (ZEAMD); assay: Test J Compounds 2 and 6 alone and in combination with other herbicides, foliage spray; format: in vivo, Zea mays; parameters: key: percentage herbicidal effect (observed); conditions: applied alone
Description: Colby's Equation was used to calculate the expected additive herbicidal effect of the mixtures of Compound 6 with Harmony® Extra (i.e. a 2:1 mixture by weight of thifensulfuron-methyl and tribenuron-methyl). […]
(§1) Seeds of test plants consisting of barnyardgrass (ECHCG; Echinochloa crus-galli (L.) Beauv.), blackgrass (ALOMY; Alopecurus myosuroides Huds.), Surinam grass (BRADC; Urochloa decumbens (Staph) R. D. Webster, previously named Brachiaria decumbens Stapf), cocklebur (XANST, Xanthium strumarium L.), corn (ZEAMD, Zea mays L. cv. ‘Pioneer 33G26’), large crabgrass (DIGSA, Digitaria sanguinalis (L.) Scop.), giant foxtail (SETFA, Setaria faberi Herrm.), lambsquarters (CHEAL, Chenopodium album L.), morningglory (IPOCO, Ipomoea coccinea L.), pigweed (AMARE, Amaranthus retroflexus L.), velvetleaf (ABUTH, Abutilon theophrasti Medik.) wheat (TRZAS, Triticum aestivum L. cv. ‘Recital’) and wild oat (AVEFA, Avena fatua L.) were planted in Redi-Earth® planting medium (Scotts Company, 14111 Scottslawn Road, Marysville, Ohio 43041) comprising spaghnum peat moss and vermiculite. […] Also listed in Table J are the expected effects for the mixtures calculated using Colby's Equation.

[2] = system: cocklebur (XANST); assay: as above; format: in vivo, Xanthium strumarium; parameters: key: 0 = no effect, 100 = complete control; conditions: applied alone
Description: as §1, with “vermiculite. Seeds of small-seeded species were planted about 1 cm deep; larger seeds were planted about 2.5 cm deep. Plants were grown in a greenhouse using supplemental lighting to maintain a photoperiod of about 14 hours; daytime and nighttime temperatures were about 24-30° C. and 22-25° C., respectively. Balanced fertilizer was applied through the watering system.” for “vermiculite.”

[3] = system: barnyardgrass (ECHCG); assay: as above; format: in vivo, Echinochloa crus-galli; parameters: key to ECHCG Obsd.: percentage herbicidal effect (observed); conditions: for ECHCG Obsd.: applied alone
Description: (§2) Colby's Equation was used to calculate the expected additive herbicidal effect of the mixtures of Compound 6 with Harmony® Extra (i.e. a 2:1 mixture by weight of thifensulfuron-methyl and tribenuron-methyl). Colby's Equation (Colby, S. R. “Calculating Synergistic and Antagonistic Responses of Herbicide Combinations,” Weeds, 15(1), pp 20-22 (1967)) calculates the expected additive effect of herbicidal mixtures, and for two active ingredients is of the form: Pa+b=Pa+Pb−(PaPb/100) wherein • Pa+b is the percentage effect of the mixture expected from additive contribution of the individual components, • Pa is the observed percentage effect of the first active ingredient at the same use rate as in the mixture, and • Pb is the observed percentage effect of the second active ingredient at the same use rate as in the mixture.
as §1, with “vermiculite. Seeds of small-seeded species were planted about 1 cm deep; larger seeds were planted about 2.5 cm deep. Plants were grown in a greenhouse using supplemental lighting to maintain a photoperiod of about 14 hours; daytime and nighttime temperatures were about 24-30° C. and 22-25° C., respectively.” for “vermiculite.”

[4] = system: Surinam grass (BRADC); assay: as above; format: in vivo, Urochloa decumbens; parameters: key to BRADC Obsd.: 0 = no effect, 100 = complete control; conditions: for BRADC Obsd.: applied alone; for observed effect of mixture compared with additive effect expected from Colby's Equation: Surinam grass, foliage spray, 15 days after treatment
Description: as §2
Seeds of test plants consisting of barnyardgrass (ECHCG; Echinochloa crus-galli (L.) Beauv.), blackgrass (ALOMY; Alopecurus myosuroides Huds.), Surinam grass (BRADC; Urochloa decumbens (Staph) R. D. Webster, previously named Brachiaria decumbens Stapf), cocklebur (XANST, Xanthium strumarium L.), corn (ZEAMD, Zea mays L. cv. ‘Pioneer 33G26’), large crabgrass (DIGSA, Digitaria sanguinalis (L.) Scop.), giant foxtail (SETFA, Setaria faberi Herrm.), lambsquarters (CHEAL, Chenopodium album L.), morningglory (IPOCO, Ipomoea coccinea L.), pigweed (AMARE, Amaranthus retroflexus L.), velvetleaf (ABUTH, Abutilon theophrasti Medik.) wheat (TRZAS, Triticum aestivum L. cv. ‘Recital’) and wild oat (AVEFA, Avena fatua L.) were planted in Redi-Earth® planting medium (Scotts Company, 14111 Scottslawn Road, Marysville, Ohio 43041) comprising spaghnum peat moss and vermiculite. Seeds of small-seeded species were planted about 1 cm deep; larger seeds were planted about 2.5 cm deep. Plants were grown in a greenhouse using supplemental lighting to maintain a photoperiod of about 14 hours; daytime and nighttime temperatures were about 24-30° C. and 22-25° C., respectively. Balanced fertilizer was applied through the watering system. The plants were grown for 7 to 11 days so that at time of treatment the plants ranged in height from 2 to 18 cm (1- to 4-leaf stage). Treatments consisted of Compounds 2 and 6 (technical material), atrazine (90DF), terbacil (Sinbar® 80DF), hexazinone (Velpar® 75WG), diuron (Karmex® 80WP) and paraquat (Gramoxone® Extra, 37%) alone and in combination, suspended or dissolved in an aqueous solvent comprising a nonionic surfactant and applied as a foliage spray using a volume of 541 L/ha. Each treatment was triply replicated. […] Treated plants and controls were maintained in the greenhouse and watered as needed with care to not wet the foliage for the first 24 hours after treatment. The effects on the plants 15 days after treatment were visually compared to untreated controls. Plant response ratings, listed in Table J as the means of the thee replicates, are based on a scale of 0 to 100 where 0 is no effect and 100 is complete control. Also listed in Table J are the expected effects for the mixtures calculated using Colby's Equation.

[5] = system: wild mustard; assay: Test F pre-/postemergence herbicide test; format: in vivo, Sinapis arvensis
Description: (§3) Seeds of plant species selected from annual blugrass (Poa annua L.), blackgrass (Alopecurus myosuroides Huds.), catchweed bedstraw (Gallium aparine L.), common chickweed (Stellaria media (L.) Vill./Cyr.), downy bromegrass (Bromus tectorum L.), green foxtail (Setaria viridis (L.) Beauv.), Italian ryegrass (Lolium multiflorum Lam.), kochia (Kochia scoparia (L.). Schrad.), lambsquarters (Chenopodium album L.), littleseed canarygrass (Phalaris minor Retz.), pigweed (Amaranthus retroflexus L.), Russian thistle (Salsola kali L. ssp. Ruthenica (Iljin) Soo), wild buckwheat (Polygonum convolvulus L.), wild mustard (Sinapis arvensis L.), wild oat (Avena fatua L.), windgrass (Apera spica-venti (L.) Beauv.), winter barley (Hordeum vulgare L.), and wheat (Triticum aestivum L.) were planted and treated preemergence with test chemicals formulated in a non-phytotoxic solvent mixture which included a surfactant.
(§4) At the same time, plants selected from these crop and weed species were treated with postemergence applications of some of the test chemicals formulated in the same manner. Plants ranged in height from 2 to 18 cm (1- to 4-leaf stage) for postemergence treatments. Treated plants and controls were maintained in a greenhouse for 12 to 14 days, after which time all species were compared to controls and visually evaluated. Plant response ratings, summarized in Table F, are based on a scale of 0 to 100 where 0 is no effect and 100 is complete control. A dash (-) response means no test result.

[6] = system: green foxtail; assay: Test F pre-/postemergence herbicide test; format: in vivo, Setaria viridis
Description: as §3, §4

[7] = system: blackgrass; assay: Test F pre-/postemergence herbicide test; format: in vivo, Alopecurus myosuroides
Description: as §3, §4

Structure (SMILES): CCn1nc(C(C)(C)C)cc1C(=O)Nc1cc(C(=O)N(C)C)ccc1F [Compound 6, N-[5-[(dimethylamino)carbonyl]-2-fluorophenyl]-3-(1,1-dimethylethyl)-1-ethyl-1H-pyrazole-5-carboxamide]
- ZEAMD Obsd. ([1]; 62 g a.i./ha): 22
- ZEAMD Obsd. ([1]; 125 g a.i./ha): 28
- XANST Obsd. ([2]; 62 g a.i./ha): 67
- XANST Obsd. ([2]; 125 g a.i./ha): 63
- ECHCG Obsd. ([3]; 62 g a.i./ha): 17
- ECHCG Obsd. ([3]; 125 g a.i./ha): 63
- observed effect of mixture compared with additive effect expected from Colby's Equation ([3]; mixture with terbacil, barnyardgrass, foliage spray, 15 days after treatment): greater than additive
- BRADC Obsd. ([4]; 62 g a.i./ha): 15
- BRADC Obsd. ([4]; 125 g a.i./ha): 40
- observed effect of mixture compared with additive effect expected from Colby's Equation ([4]; mixture with diuron): greater than additive
- observed effect of mixture compared with additive effect expected from Colby's Equation ([4]; mixture with diuron, listed as compound 6): synergistic activity
- observed effect of mixture compared with additive effect expected from Colby's Equation ([4]; mixture with hexazinone): greater than additive
- observed effect of mixture compared with additive effect expected from Colby's Equation ([4]; mixture with hexazinone, listed as compound 6): synergistic activity
- observed effect of mixture compared with additive effect expected from Colby's Equation ([4]; mixture with terbacil): greater than additive

Structure (SMILES): CCn1nc(C(C)(C)C)cc1C(=O)Nc1cc(C(=O)OC(C)C)c(F)cc1F [Compound 248]
- Plant response rating (0-100), Mustard, Wild ([5]; Postemergence, 31 g ai/ha): 30
- Plant response rating (0-100), Mustard, Wild ([5]; Postemergence, 62 g ai/ha): 40
- Plant response rating (0-100), Mustard, Wild ([5]; Postemergence, 125 g ai/ha): 60
- Plant response rating (0-100), Mustard, Wild ([5]; Postemergence, 250 g ai/ha): 60
- Plant response rating (0-100), Mustard, Wild ([5]; Preemergence, 31 g ai/ha): 40
- Plant response rating (0-100), Mustard, Wild ([5]; Preemergence, 62 g ai/ha): 50
- Plant response rating (0-100), Mustard, Wild ([5]; Preemergence, 125 g ai/ha): 50
- Plant response rating (0-100), Mustard, Wild ([5]; Preemergence, 250 g ai/ha): 50
- Plant response rating (0-100), Foxtail, Green ([6]; Postemergence, 31 g ai/ha): 50
- Plant response rating (0-100), Foxtail, Green ([6]; Postemergence, 62 g ai/ha): 60
- Plant response rating (0-100), Foxtail, Green ([6]; Postemergence, 125 g ai/ha): 60
- Plant response rating (0-100), Foxtail, Green ([6]; Postemergence, 250 g ai/ha): 65
- Plant response rating (0-100), Foxtail, Green ([6]; Preemergence, 31 g ai/ha): 65
- Plant response rating (0-100), Foxtail, Green ([6]; Preemergence, 62 g ai/ha): 65
- Plant response rating (0-100), Foxtail, Green ([6]; Preemergence, 125 g ai/ha): 100
- Plant response rating (0-100), Foxtail, Green ([6]; Preemergence, 250 g ai/ha): 100
- Plant response rating (0-100), Blackgrass ([7]; Postemergence, 31 g ai/ha): 45
- Plant response rating (0-100), Blackgrass ([7]; Postemergence, 62 g ai/ha): 50
- Plant response rating (0-100), Blackgrass ([7]; Postemergence, 125 g ai/ha): 60
- Plant response rating (0-100), Blackgrass ([7]; Postemergence, 250 g ai/ha): 60
- Plant response rating (0-100), Blackgrass ([7]; Preemergence, 31 g ai/ha): 50
- Plant response rating (0-100), Blackgrass ([7]; Preemergence, 62 g ai/ha): 50
- Plant response rating (0-100), Blackgrass ([7]; Preemergence, 125 g ai/ha): 65
- Plant response rating (0-100), Blackgrass ([7]; Preemergence, 250 g ai/ha): 65

— patent publication US20060069132A1, “Azolecarboxamide herbicides” (priority 2004, published 2006)
